US11034650B2, “Compounds useful for treating a Mannheimia haemolytica or Histophilus somni infection” (Intervet Inc., priority 2016, dated 2021)
In brackets after ≈: the same amount, converted by molar mass.

Tests used:
Assay type in all cases: cell-based
[1] = test system: Mannheimia haemolytica MH 10720 (154, BRD field isolate); assay: MIC, broth-microdilution (CLSI VET01-A4), strain MH 10720; conditions: Mannheimia haemolytica strain MH 10720, broth-microdilution; unit assumed
Method in brief: (§1)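 Two-fold serial dilutions of each compound were prepared, bacteria were grown in them, and plates were then inspected visually. No turbidity at the lowest concentration defined the MIC.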

[2] = test system: Mannheimia haemolytica MH 6357 (M7/2, reference strain, cattle infection strain); assay: MIC, broth-microdilution (CLSI VET01-A4), strain MH 6357; conditions: Mannheimia haemolytica strain MH 6357, broth-microdilution; unit assumed
Method in brief: as §1

[3] = test system: Mannheimia haemolytica MH 13065 (XB0446-6003.9, BRD field isolate); assay: MIC, broth-microdilution (CLSI VET01-A4), strain MH 13065; conditions: Mannheimia haemolytica strain MH 13065, broth-microdilution; unit assumed
Method in brief: as §1

[4] = test system: Pasteurella multocida PM 12080 (IV102277-0093, BRD field isolate); assay: MIC, broth-microdilution (CLSI VET01-A4), strain PM 12080; conditions: Pasteurella multocida strain PM 12080, broth-microdilution; unit assumed
Method in brief: as §1

[5] = test system: Mannheimia haemolytica MH 6374 (ATCC 33396, reference strain); assay: MIC, broth-microdilution (CLSI VET01-A4), strain MH 6374; conditions: Mannheimia haemolytica strain MH 6374, broth-microdilution; unit assumed
Method in brief: as §1

[6] = test system: Mannheimia haemolytica MH 12587 (1071, BRD field isolate, macrolide-resistance: erm+, E+); assay: MIC, broth-microdilution (CLSI VET01-A4), strain MH 12587; conditions: Mannheimia haemolytica strain MH 12587, broth-microdilution; unit assumed
Method in brief: as §1

[7] = test system: Pasteurella multocida PM 10775 (080130003051, BRD field isolate); assay: MIC, broth-microdilution (CLSI VET01-A4), strain PM 10775; conditions: Pasteurella multocida strain PM 10775, broth-microdilution; unit assumed
Method in brief: as §1

[8] = test system: Pasteurella multocida PM 6391 (ATCC 43137, reference strain); assay: MIC, broth-microdilution (CLSI VET01-A4), strain PM 6391; conditions: Pasteurella multocida strain PM 6391, broth-microdilution; unit assumed
Method in brief: as §1

[9] = test system: Pasteurella multocida PM 6267 (P 2225 (L386), reference strain, mouse infection strain); assay: MIC, broth-microdilution (CLSI VET01-A4), strain PM 6267; conditions: Pasteurella multocida strain PM 6267, broth-microdilution; unit assumed
Method in brief: as §1

[10] = test system: Mannheimia haemolytica MH 13093 (XB0472-6014.1, BRD field isolate); assay: MIC, broth-microdilution (CLSI VET01-A4), strain MH 13093; conditions: Mannheimia haemolytica strain MH 13093, broth-microdilution; unit assumed
Method in brief: as §1

Row | SMILES | MIC MH 10720 [1] | MIC MH 6357 [2] | MIC MH 13065 [3] | MIC PM 12080 [4] | MIC MH 6374 [5] | MIC MH 12587 [6] | MIC PM 10775 [7] | MIC PM 6391 [8] | MIC PM 6267 [9] | MIC MH 13093 [10]
1 | CON=C(C)[C@H](NC(=O)c1ccc(C#Cc2ccc(CNCc3ccc(OC)cc3)cc2)cc1)C(=O)NO [Compound 383] | 0.8 µg/mL (≈ 1.55 µM) | 0.8 µg/mL (≈ 1.55 µM) | 1.6 µg/mL (≈ 3.11 µM) | 0.4 µg/mL (≈ 0.777 µM) | 1.6 µg/mL (≈ 3.11 µM) | 0.4 µg/mL (≈ 0.777 µM) | 0.8 µg/mL (≈ 1.55 µM) | ≤ 0.1 µg/mL | 6.3 µg/mL (≈ 12.2 µM) | 1.6 µg/mL (≈ 3.11 µM)
2 | C=CCNCc1ccc(C#Cc2ccc(C(=O)N[C@H](C(=O)NO)C(C)=NOC)cc2)cc1 [Compound 379] | 0.8 µg/mL (≈ 1.84 µM) | 0.8 µg/mL (≈ 1.84 µM) | 1.6 µg/mL (≈ 3.68 µM) | 0.4 µg/mL (≈ 0.921 µM) | 1.6 µg/mL (≈ 3.68 µM) | 0.4 µg/mL (≈ 0.921 µM) | 0.4 µg/mL (≈ 0.921 µM) | ≤ 0.1 µg/mL | 3.1 µg/mL (≈ 7.13 µM) | 1.6 µg/mL (≈ 3.68 µM)
3 | CC(C)(O)[C@H](NC(=O)c1ccc(C#Cc2ccc(CNC3CC3)s2)cc1)C(=O)NO [Compound 290] | ≤ 0.1 µg/mL | ≤ 0.1 µg/mL | ≤ 0.1 µg/mL | ≤ 0.1 µg/mL | ≤ 0.1 µg/mL | 0.4 µg/mL (≈ 0.936 µM) | ≤ 0.1 µg/mL | 0.2 µg/mL (≈ 0.468 µM) | ≤ 0.1 µg/mL | 0.2 µg/mL (≈ 0.468 µM)
4 | CON=C(C)[C@H](NC(=O)c1ccc(C#Cc2ccc(CNCc3cccs3)cc2)cc1)C(=O)NO [Compound 392] | 0.4 µg/mL (≈ 0.815 µM) | 0.4 µg/mL (≈ 0.815 µM) | 0.4 µg/mL (≈ 0.815 µM) | ≤ 0.1 µg/mL | 0.4 µg/mL (≈ 0.815 µM) | ≤ 0.1 µg/mL | 0.4 µg/mL (≈ 0.815 µM) | ≤ 0.1 µg/mL | 1.6 µg/mL (≈ 3.26 µM) | 0.4 µg/mL (≈ 0.815 µM)
5 | CSC(C)(C)[C@H](NC(=O)c1ccc(C#Cc2ccc(CNCc3ccco3)nc2)cc1)C(=O)NO [Compound 344] | ≤ 0.1 µg/mL | 0.4 µg/mL (≈ 0.812 µM) | 0.8 µg/mL (≈ 1.62 µM) | 0.4 µg/mL (≈ 0.812 µM) | 0.8 µg/mL (≈ 1.62 µM) | 1.6 µg/mL (≈ 3.25 µM) | ≤ 0.1 µg/mL | 0.8 µg/mL (≈ 1.62 µM) | 0.8 µg/mL (≈ 1.62 µM) | 1.6 µg/mL (≈ 3.25 µM)
6 | CC(C)([C@H](NC(=O)c1ccc(C#Cc2ccc(CNCc3cccnc3)nc2)cc1)C(=O)NO)S(C)(=O)=O [Compound 373] | 0.4 µg/mL (≈ 0.747 µM) | 1.6 µg/mL (≈ 2.99 µM) | 3.1 µg/mL (≈ 5.79 µM) | 0.4 µg/mL (≈ 0.747 µM) | 3.1 µg/mL (≈ 5.79 µM) | 6.3 µg/mL (≈ 11.8 µM) | ≤ 0.1 µg/mL | 0.8 µg/mL (≈ 1.49 µM) | 0.4 µg/mL (≈ 0.747 µM) | 3.1 µg/mL (≈ 5.79 µM)
7 | CC(=O)[C@H](NC(=O)c1ccc(C#Cc2ccc(CN3CCOCC3)cc2)cc1)C(=O)NO [Compound 399] | 1.6 µg/mL (≈ 3.67 µM) | 3.1 µg/mL (≈ 7.12 µM) | 6.3 µg/mL (≈ 14.5 µM) | 0.4 µg/mL (≈ 0.919 µM) | 6.3 µg/mL (≈ 14.5 µM) | 1.6 µg/mL (≈ 3.67 µM) | 0.8 µg/mL (≈ 1.84 µM) | ≤ 0.1 µg/mL | 25 µg/mL (≈ 57.4 µM) | 6.3 µg/mL (≈ 14.5 µM)
8 | COCCNCc1ccc(C#Cc2ccc(C(=O)N[C@H](C(=O)NO)C(C)(C)SC)cc2)s1 [Compound 302] | ≤ 0.1 µg/mL | 0.4 µg/mL (≈ 0.841 µM) | 0.8 µg/mL (≈ 1.68 µM) | 0.4 µg/mL (≈ 0.841 µM) | 0.8 µg/mL (≈ 1.68 µM) | 1.6 µg/mL (≈ 3.36 µM) | ≤ 0.1 µg/mL | 0.8 µg/mL (≈ 1.68 µM) | 0.8 µg/mL (≈ 1.68 µM) | 0.8 µg/mL (≈ 1.68 µM)
9 | CC(C)(O)[C@H](NC(=O)c1ccc(C#Cc2ccc(CNCc3ncccn3)s2)cc1)C(=O)NO [Compound 360] | 0.8 µg/mL (≈ 1.67 µM) | 0.8 µg/mL (≈ 1.67 µM) | 1.6 µg/mL (≈ 3.34 µM) | 0.4 µg/mL (≈ 0.834 µM) | 1.6 µg/mL (≈ 3.34 µM) | 6.3 µg/mL (≈ 13.1 µM) | ≤ 0.1 µg/mL | 1.6 µg/mL (≈ 3.34 µM) | 0.4 µg/mL (≈ 0.834 µM) | 6.3 µg/mL (≈ 13.1 µM)
10 | CC(=O)C(NC(=O)c1ccc(C#Cc2ccc(CNCC3CCCO3)cc2)cc1)C(=O)NO (stereo not drawn) [Compound 413] | 3.1 µg/mL (≈ 6.9 µM) | 12.5 µg/mL (≈ 27.8 µM) | 6.3 µg/mL (≈ 14 µM) | 0.4 µg/mL (≈ 0.89 µM) | 12.5 µg/mL (≈ 27.8 µM) | 6.3 µg/mL (≈ 14 µM) | 0.4 µg/mL (≈ 0.89 µM) | 0.2 µg/mL (≈ 0.445 µM) | 50 µg/mL (≈ 111 µM) | 25 µg/mL (≈ 55.6 µM)
11 | CSC(C)(C)[C@H](NC(=O)c1ccc(C#Cc2ccc(CNCc3nccs3)cc2)cc1)C(=O)NO [Compound 254] | 0.2 µg/mL (≈ 0.393 µM) | 0.8 µg/mL (≈ 1.57 µM) | 0.8 µg/mL (≈ 1.57 µM) | ≤ 0.1 µg/mL | 1.6 µg/mL (≈ 3.15 µM) | 1.6 µg/mL (≈ 3.15 µM) | ≤ 0.1 µg/mL | 0.4 µg/mL (≈ 0.786 µM) | ≤ 0.1 µg/mL | 0.8 µg/mL (≈ 1.57 µM)
12 | CON=C(C)[C@H](NC(=O)c1ccc(C#Cc2ccc(CNCc3ccc(C)cc3)cc2)cc1)C(=O)NO [Compound 393] | 0.8 µg/mL (≈ 1.6 µM) | 0.8 µg/mL (≈ 1.6 µM) | 6.3 µg/mL (≈ 12.6 µM) | 0.4 µg/mL (≈ 0.802 µM) | 1.6 µg/mL (≈ 3.21 µM) | 0.4 µg/mL (≈ 0.802 µM) | 0.8 µg/mL (≈ 1.6 µM) | 0.2 µg/mL (≈ 0.401 µM) | 6.3 µg/mL (≈ 12.6 µM) | 6.3 µg/mL (≈ 12.6 µM)
13 | CC(C)[C@H](NC(=O)c1ccc(C#Cc2ccc(CN3CCN(C)CC3)cc2)cc1)C(=O)NO [Compound 211] | 1.6 µg/mL (≈ 3.57 µM) | 3.1 µg/mL (≈ 6.91 µM) | 6.3 µg/mL (≈ 14 µM) | ≤ 0.1 µg/mL | 12.5 µg/mL (≈ 27.9 µM) | 12.5 µg/mL (≈ 27.9 µM) | ≤ 0.1 µg/mL | 0.2 µg/mL (≈ 0.446 µM) | ≤ 0.1 µg/mL | 6.3 µg/mL (≈ 14 µM)
14 | CC[C@H](C)[C@H](NC(=O)c1ccc(C#Cc2ccc(CNCc3ccco3)cc2)cc1)C(=O)NO [Compound 181] | ≤ 0.1 µg/mL | 0.4 µg/mL (≈ 0.87 µM) | 0.8 µg/mL (≈ 1.74 µM) | 0.4 µg/mL (≈ 0.87 µM) | 0.8 µg/mL (≈ 1.74 µM) | 1.6 µg/mL (≈ 3.48 µM) | ≤ 0.1 µg/mL | 0.8 µg/mL (≈ 1.74 µM) | 0.4 µg/mL (≈ 0.87 µM) | 0.8 µg/mL (≈ 1.74 µM)
15 | CSC(C)(C)[C@H](NC(=O)c1ccc(C#Cc2ccc(CNCc3cccnc3)cc2)cc1)C(=O)NO [Compound 247] | 0.2 µg/mL (≈ 0.398 µM) | 0.4 µg/mL (≈ 0.796 µM) | 0.4 µg/mL (≈ 0.796 µM) | 0.2 µg/mL (≈ 0.398 µM) | 0.8 µg/mL (≈ 1.59 µM) | 0.8 µg/mL (≈ 1.59 µM) | ≤ 0.1 µg/mL | 0.8 µg/mL (≈ 1.59 µM) | ≤ 0.1 µg/mL | 0.8 µg/mL (≈ 1.59 µM)
16 | CC[C@H](C)[C@H](NC(=O)c1ccc(C#Cc2ccc(CNCCCOC)cc2)cc1)C(=O)NO [Compound 177] | 1.6 µg/mL (≈ 3.54 µM) | 3.1 µg/mL (≈ 6.86 µM) | 6.3 µg/mL (≈ 14 µM) | 1.6 µg/mL (≈ 3.54 µM) | 6.3 µg/mL (≈ 14 µM) | 12.5 µg/mL (≈ 27.7 µM) | ≤ 0.1 µg/mL | 3.1 µg/mL (≈ 6.86 µM) | 0.8 µg/mL (≈ 1.77 µM) | 6.3 µg/mL (≈ 14 µM)
17 | CC(C)([C@H](NC(=O)c1ccc(C#Cc2ccc(CNCc3ccco3)s2)cc1)C(=O)NO)S(C)(=O)=O [Compound 321] | ≤ 0.1 µg/mL | ≤ 0.1 µg/mL | 0.2 µg/mL (≈ 0.378 µM) | ≤ 0.1 µg/mL | ≤ 0.1 µg/mL | 0.4 µg/mL (≈ 0.755 µM) | ≤ 0.1 µg/mL | ≤ 0.1 µg/mL | ≤ 0.1 µg/mL | 0.2 µg/mL (≈ 0.378 µM)
18 | CC(C)(O)[C@H](NC(=O)c1ccc(C#Cc2ccc(CNCc3ccccc3)s2)cc1)C(=O)NO [Compound 294] | ≤ 0.1 µg/mL | ≤ 0.1 µg/mL | ≤ 0.1 µg/mL | ≤ 0.1 µg/mL | 0.2 µg/mL (≈ 0.419 µM) | 0.4 µg/mL (≈ 0.838 µM) | ≤ 0.1 µg/mL | 0.2 µg/mL (≈ 0.419 µM) | 0.8 µg/mL (≈ 1.68 µM) | 0.4 µg/mL (≈ 0.838 µM)
